{
  "source": "patent US8962257B2",
  "about": "“Methods for diagnosing heart failure and other cardiac diseases” (The Trustees of the University of Pennsylvania, priority 2010, dated 2015)",
  "test_system": "NRG-1β",
  "assay": "Serial plasma NRG-1β by indirect sandwich ELISA in Her-2+ breast cancer patients receiving doxorubicin and trastuzumab",
  "assay_type": "in vivo, human",
  "settings": "with Doxorubicin exposure",
  "experimental": "NRG-1β is measured from frozen, previously unthawed serum or plasma samples that had been stored at −80° C. until time of assay. An indirect sandwich enzyme-linked immunosorbent assay (ELISA) was used (NRG1-β1 Duoset ELISA development system from R&D Systems, Minneapolis, Minn.). Assay technology was adapted for human samples, and all measurements were performed at Vanderbilt University. […] Following incubation, a biotinylated goat anti-human NRG1-β1 detection antibody was added to each well, and a streptavidin-HRP system was used for detection. […] Extensive validation was performed and there was no cross-reactivity with NRG-1α isoform or epidermal growth factor.\nData were obtained at enrollment and every 3 months during anti-cancer therapy.\nNRG-1β plasma level was measured serially every 3 months during chemotherapy treatment.",
  "data": [
    {"smiles": "COc1cccc2c1C(=O)c1c(O)c3c(c(O)c1C2=O)C[C@@](O)(C(=O)CO)C[C@@H]3O[C@H]1C[C@H](N)[C@H](O)[C@H](C)O1", "note": "[Doxorubicin, doxorubicin]", "values": [
      {"measurement": "change in NRG-1β over time", "result": "significant decrease"},
      {"measurement": "change in NRG-1β over time", "setting": "listed as doxorubicin", "result": "significant decline"}
    ]}
  ]
}
